Source: BigSolDB 2.1

Cc1[nH]nc2cc([N+](=O)[O-])ccc12
solubility (mole fraction)
Settings	in ethanol	in n-propanol	in water
278.15 K	0.00471	0.0051	2.06e-05
283.15 K	0.00539	0.00574	2.7e-05
288.15 K	0.00619	0.00682	3.52e-05
293.15 K	0.0073	0.00793	4.67e-05
298.15 K	0.00866	0.00901	6.15e-05
303.15 K	0.0102	0.0103	7.91e-05
308.15 K	0.0118	0.0118	9.98e-05
313.15 K	0.0137	0.0133	0.000123
318.15 K	0.016	0.0149	0.000151
323.15 K	0.019	0.017	0.000182
328.15 K	0.022	0.0194	0.000222
